Assay results: ChEMBL document CHEMBL3612053, “Discovery and SAR study of 3-(tert-butyl)-4-hydroxyphenyl benzoate and benzamide derivatives as novel farnesoid X receptor (FXR) antagonists” (Bioorg Med Chem, 2015)

Experiments:
[1] = Half life in serum (unknown origin); format: ADME, cell-free
[2] = biological target: T1, Bile acid receptor (Homo sapiens, UniProt Q96RI1); test: Antagonist activity at GST-tagged FXR LBD (unknown origin) assessed as inhibition of CDCA-induced Bio-SRC-1 recruitment after 30 mins by HTRF assay
T1 sequence (Q96RI1 whole entry): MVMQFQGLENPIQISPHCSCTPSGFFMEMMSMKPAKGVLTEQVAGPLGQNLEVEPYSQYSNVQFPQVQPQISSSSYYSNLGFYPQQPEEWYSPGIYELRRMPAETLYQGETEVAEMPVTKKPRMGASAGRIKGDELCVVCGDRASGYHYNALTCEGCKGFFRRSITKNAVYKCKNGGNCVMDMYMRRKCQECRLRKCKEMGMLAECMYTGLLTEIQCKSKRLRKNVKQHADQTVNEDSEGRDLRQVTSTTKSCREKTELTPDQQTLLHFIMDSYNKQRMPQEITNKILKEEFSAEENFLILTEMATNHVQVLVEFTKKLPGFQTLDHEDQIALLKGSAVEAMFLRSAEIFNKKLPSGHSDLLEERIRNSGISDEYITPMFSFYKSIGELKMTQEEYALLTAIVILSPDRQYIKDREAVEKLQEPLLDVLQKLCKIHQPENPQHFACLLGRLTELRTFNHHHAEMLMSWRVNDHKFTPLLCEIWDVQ

[3] = biological target: T2, Bile acid receptor (Homo sapiens) (UniProt Q96RI1); test: Potency index, ratio of guggulsterone IC50 to compound IC50 for GST-tagged FXR LBD (unknown origin)
T2 sequence (whole entry): T1 sequence (Q96RI1 whole entry)

## CC(C)(C)c1cc(NC(=O)c2c(Cl)cc(NCc3ccncc3)cc2Cl)ccc1O
[1]
  half-life: > 60 min
[2]
  IC50: 9.8 µM

## Cc1ccc(C(=O)Oc2ccc(O)c(C(C)(C)C)c2)cc1
[1]
  half-life: < 15 min
[2]
  IC50: > 100 µM

## CC(C)(C)c1cc(NC(=O)c2ccc(Cl)cc2Cl)cc(C(C)(C)C)c1O
[1]
  half-life: > 60 min
[2]
  IC50: > 100 µM

## CC(C)(C)c1cc(OC(=O)Cc2ccccc2)ccc1O
[1]
  half-life: < 15 min
[2]
  IC50: > 100 µM

## CC(C)(C)c1cc(NC(=O)c2c(Cl)cc(NC3CCCC3)cc2Cl)ccc1O
[1]
  half-life: > 60 min
[2]
  IC50: 5 µM

## CC(C)(C)c1cc(OC(=O)c2ccco2)ccc1O
[1]
  half-life: < 15 min
[2]
  IC50: > 100 µM

## CC(C)(C)c1cc(NC(=O)c2c(Cl)cc(N)cc2Cl)ccc1O
[1]
  half-life: > 60 min
[2]
  IC50: 5.2 µM

## CC(C)(C)c1cc(OC(=O)c2ccc(Cl)cc2Cl)ccc1O
[1]
  half-life: 10 min
[2]
  IC50: 10.2 µM

## CN(c1cc(Cl)c(C(=O)Nc2ccc(O)c(C(C)(C)C)c2)c(Cl)c1)C1CCCCC1
[1]
  half-life: > 60 min
[2]
  IC50: > 100 µM

## CN(C)c1cc(Cl)c(C(=O)N(Cc2cccnc2)c2ccc(O)c(C(C)(C)C)c2)c(Cl)c1
[1]
  half-life: > 60 min
[2]
  IC50: 6.3 µM

## CN(C)c1cc(Cl)c(C(=O)N(c2ccc(O)c(C(C)(C)C)c2)C2CCCCC2)c(Cl)c1
[1]
  half-life: > 60 min
[2]
  IC50: > 100 µM

## CNc1cc(Cl)c(C(=O)Nc2ccc(O)c(C(C)(C)C)c2)c(Cl)c1
[1]
  half-life: > 60 min
[2]
  IC50: 13.9 µM

## CC(C)(C)c1cc(NC(=O)c2c(Cl)cc(NCc3cccs3)cc2Cl)ccc1O
[1]
  half-life: > 60 min
[2]
  IC50: 8.6 µM

## CC(C)(C)c1cc(OC(=O)c2ccc([N+](=O)[O-])cc2)ccc1O
[1]
  half-life: < 15 min
[2]
  IC50: 12.7 µM

## CC(C)(C)c1cc(OC(=O)/C=C/c2ccccc2)ccc1O
[1]
  half-life: < 15 min
[2]
  IC50: > 100 µM

## CN(C)c1cc(Cl)c(C(=O)Nc2ccc(O)c(C(C)(C)C)c2)c(Cl)c1
[1]
  half-life: > 60 min
[2]
  IC50: 1.4 µM

## CN(C)c1cc(Cl)c(C(=O)N(C)c2ccc(O)c(C(C)(C)C)c2)c(Cl)c1
[1]
  half-life: > 60 min
[2]
  IC50: 3.9 µM

## CC(C)(C)c1cc(NC(=O)c2c(Cl)cc(N3CCCCC3)cc2Cl)ccc1O
[1]
  half-life: > 60 min
[2]
  IC50: > 100 µM

## CC(C)(C)c1cc(OC(=O)c2c(Cl)cc(N)cc2Cl)ccc1O
[1]
  half-life: < 15 min
[3]
  Ratio IC50: 100
[2]
  IC50: 0.6 µM

## COc1ccccc1C(=O)Oc1ccc(O)c(C(C)(C)C)c1
[1]
  half-life: < 15 min
[2]
  IC50: > 100 µM

## Cc1ccccc1C(=O)Oc1ccc(O)c(C(C)(C)C)c1
[1]
  half-life: < 15 min
[2]
  IC50: > 100 µM

## CC(C)(C)c1cc(OC(=O)c2c(Cl)cc([N+](=O)[O-])cc2Cl)ccc1O
[1]
  half-life: < 15 min
[2]
  IC50: 5.9 µM

## CC(C)c1cc(NC(=O)c2ccc(Cl)cc2Cl)ccc1O
[1]
  half-life: > 60 min
[2]
  IC50: > 100 µM

## CN(C)c1cc(Cl)c(C(=O)N(CC2CCCCC2)c2ccc(O)c(C(C)(C)C)c2)c(Cl)c1
[1]
  half-life: > 60 min
[2]
  IC50: > 100 µM

## CC(C)(C)c1cc(NC(=O)c2c(Cl)cc(NCc3cccnc3)cc2Cl)ccc1O
[1]
  half-life: > 60 min
[2]
  IC50: 3.6 µM

## CC(C)(C)c1cc(OC(=O)c2ccc([N+](=O)[O-])cc2Cl)ccc1O
[1]
  half-life: < 15 min
[2]
  IC50: 8.8 µM

## CCNc1cc(Cl)c(C(=O)Nc2ccc(O)c(C(C)(C)C)c2)c(Cl)c1
[1]
  half-life: > 60 min
[2]
  IC50: 28.7 µM

## CC(C)(C)c1cc(OC(=O)c2ccc(N)cc2Cl)ccc1O
[1]
  half-life: < 15 min
[2]
  IC50: 7.2 µM

## CC(C)(C)c1cc(OC(=O)c2ccccc2)ccc1O
[1]
  half-life: < 15 min
[2]
  IC50: > 100 µM

## CC(=O)Oc1ccc(NC(=O)c2ccc(Cl)cc2Cl)cc1C(C)(C)C
[1]
  half-life: > 60 min
[2]
  IC50: 15.5 µM

## CC(C)(C)c1cc(NC(=O)c2c(Cl)cc(N3CCNCC3)cc2Cl)ccc1O
[1]
  half-life: > 60 min
[2]
  IC50: > 100 µM

## COc1ccc(NC(=O)c2ccc(Cl)cc2Cl)cc1C(C)(C)C
[1]
  half-life: > 60 min
[2]
  IC50: > 100 µM

## C=CCOc1ccc(NC(=O)c2ccc(Cl)cc2Cl)cc1C(C)(C)C
[1]
  half-life: > 60 min
[2]
  IC50: > 100 µM

## CC(C)(C)c1cc(OC(=O)c2ccc(Cl)cc2)ccc1O
[1]
  half-life: < 15 min
[2]
  IC50: > 100 µM

## CCc1cc(NC(=O)c2ccc(Cl)cc2Cl)ccc1O
[1]
  half-life: > 60 min
[2]
  IC50: > 100 µM

## Cc1cc(NC(=O)c2ccc(Cl)cc2Cl)ccc1O
[1]
  half-life: > 60 min
[2]
  IC50: > 100 µM

## CC(C)(C)c1cc(NC(=O)c2c(Cl)cc(NC3CCCCC3)cc2Cl)ccc1O
[1]
  half-life: > 60 min
[2]
  IC50: 2.5 µM

## CC(C)(C)c1cc(OC(=O)c2ccc(N)cc2)ccc1O
[1]
  half-life: < 15 min
[2]
  IC50: 34.2 µM

## CC(C)(C)c1cc(NC(=O)c2ccc(Cl)cc2Cl)ccc1O
[1]
  half-life: > 60 min
[2]
  IC50: 13.6 µM
